According to publication PMC5334642, “A Peptide Amphiphile Organogelator of Polar Organic Solvents” (Scientific Reports, 2017):
One block for each substance: values may come before it.

How the values were obtained:
[1] = Solubility in water and organic solvents
[2] = Gelation by inversion test; details: for minimum gel concentration (MGC): inversion test
[3] = hydrogel of similar PA; cited from earlier work
Source text: This is consistent with previous findings that increasing the proportion of valines in the β-sheet forming region of a PA results in an increase in gel stiffness. With PAs such as […]16, the β-sheet signal in the CD spectrum is red-shifted by a magnitude that inversely correlates with gel stiffness, and this has been attributed to the extent of twisting of the sheets, i.e., stiffer gels involve stronger peptide interactions with the least t ...

[4] = Rheology of the gels (strain sweep, frequency sweep, thixotropic test); type: physicochemical
Description: […]-C8 therefore forms a very stiff but brittle gel.
An aliquot (550 μL) of this solution was then cast onto an Anton Paar MCR 302 rheometer (parallel plate geometry, 25 mm diameter, 1 mm gap) and left to gel over the course of 4 h. A solvent trap and Peltier hood was used to prevent any evaporation during gelation. Frequency sweeps were performed from 0.1–10 Hz, at a constant strain of 0.2% and three repeats performed on separate samples. Strain sweeps were performed from 0.1–100% at a constant frequency of 1 Hz.

- solubility in acetonitrile/water mixtures ([1]; mixtures of acetonitrile and water, VVVGHVVV-C8 with sonication): soluble
- solubility in water ([1]; water, regardless of pH, temperature and sonication): peculiarly soluble in water
- gelation of acetonitrile/water solutions ([2]; acetonitrile/water mixtures): did not gelate
Substance: N- Val3-His-Gly-Val3

Substance: EEEAAAVVV-C16 [previously reported hydrogel-forming peptide amphiphile studied by the Stupp and Nguyen groups]
- gel stiffness [3]: < 10^4 Pa

- solubility in DMF ([1]; DMF): dissolved
- solubility in acetonitrile ([1]; acetonitrile): insoluble
- solubility in dichloromethane ([1]; dichloromethane): dissolved
- solubility in dimethyl sulfoxide ([1]; dimethyl sulfoxide): dissolved
- solubility in ethyl acetate ([1]; ethyl acetate, heating to reflux temperatures and sonicating for up to one hour): did not dissolve
- gel stiffness (approximated by G') ([4]; 0.20 wt.% gel in 50% acetonitrile/water, frequency sweep 0.1-10 Hz at constant 0.2% strain, three repeats on separate samples): 1.5 × 10^5 Pa
- cross-over point under oscillatory strain ([4]; DMF organogel): no cross-over point observed
- strain at which mechanical properties deviate from the linear viscoelastic region ([4]; gel from 0.20 wt.% solution in 50% acetonitrile/water, strain sweep 0.1-100% at constant frequency of 1 Hz): less than 1 % strain
- cross-over point from gel to liquid (G' = G'') ([4]; gel from 0.20 wt.% solution in 50% acetonitrile/water, strain sweep at constant frequency of 1 Hz): 3 % strain
- minimum gel concentration (MGC) ([2]; DMF): 0.06 wt.%
- minimum gel concentration (MGC) ([2]; acetone): 0.06 wt.%
- gel formation in chloroform ([2]; chloroform solution): did not form gels
- gel formation in dichloromethane ([2]; dichloromethane solution): did not form gels
- gel formation in dimethyl sulfoxide ([2]; dimethyl sulfoxide solution): did not form gels
- gel formation in ethanol ([2]; ethanol solution): did not form gels
- gel formation in isopropanol ([2]; isopropanol solution): did not form gels
- gel formation in methanol ([2]; methanol solution): did not form gels
- gel formation in toluene ([2]; toluene solution): did not form gels
Substance: N-Octanoic acid-Val3-His-Gly-Val3
